Test system: UCP3
Experiment: Effects of Tempol on gene expression in mice, chip-based microarray of cardiac tissue
Format: in vivo
Details: Tempol 5 mg/g of food from 14 to 31 months after birth
Procedure: To assess the effects of Tempol on gene expression, Tempol was administered to experimental mice at a dose of 5 mg/g of food from 14 months to 31 months after birth. Mice receiving the same food without the addition of Tempol were used as a negative control. At the age of 31 months, the experimental animals were sacrificed and the hearts were surgically removed. The expression of a broad spectrum of genes in the cardiac tissue was assessed using chip-based microarray technology. Such chips are well known in the art and are widely used to assess gene expression.

## CC1(C)CC(O)CC(C)(C)N1[O] [Tempol, 4-hydroxy-2,2,6,6-tetramethylpiperidine-1-oxyl]
Cardiac tissue, microarray
  expression of UCP3: statistically significant increase in expression
vs. same food without Tempol, cardiac tissue per text (table title says adipose tissue), P-value 0.00
  Fold change (UCP3 gene expression after Tempol administration): 1.57

— US20220378766A1, “[…] OF A GENE ENCODING AN […] BY TREATING A HUMAN SUBJECT WITH A NITROXIDE” (priority 2021, published 2022)
